{"source": "patent US8415293B2", "about": "“Peptide mediators of cholesterol efflux” (The Regents of the University of California, priority 2008, dated 2013)", "key": {"ABCA1 [1]": {"biological_target": "T1, ABCA1 (Mus musculus, UniProt P41233)", "T1 construct": "cell lines in which cholesterol efflux can be enhanced using a cAMP analog that up-regulates ABCA1 protein expression (e.g., J774 macrophages); endogenous in cells; host or cells: J774 macrophages", "T1 sequence (P41233 whole entry)": "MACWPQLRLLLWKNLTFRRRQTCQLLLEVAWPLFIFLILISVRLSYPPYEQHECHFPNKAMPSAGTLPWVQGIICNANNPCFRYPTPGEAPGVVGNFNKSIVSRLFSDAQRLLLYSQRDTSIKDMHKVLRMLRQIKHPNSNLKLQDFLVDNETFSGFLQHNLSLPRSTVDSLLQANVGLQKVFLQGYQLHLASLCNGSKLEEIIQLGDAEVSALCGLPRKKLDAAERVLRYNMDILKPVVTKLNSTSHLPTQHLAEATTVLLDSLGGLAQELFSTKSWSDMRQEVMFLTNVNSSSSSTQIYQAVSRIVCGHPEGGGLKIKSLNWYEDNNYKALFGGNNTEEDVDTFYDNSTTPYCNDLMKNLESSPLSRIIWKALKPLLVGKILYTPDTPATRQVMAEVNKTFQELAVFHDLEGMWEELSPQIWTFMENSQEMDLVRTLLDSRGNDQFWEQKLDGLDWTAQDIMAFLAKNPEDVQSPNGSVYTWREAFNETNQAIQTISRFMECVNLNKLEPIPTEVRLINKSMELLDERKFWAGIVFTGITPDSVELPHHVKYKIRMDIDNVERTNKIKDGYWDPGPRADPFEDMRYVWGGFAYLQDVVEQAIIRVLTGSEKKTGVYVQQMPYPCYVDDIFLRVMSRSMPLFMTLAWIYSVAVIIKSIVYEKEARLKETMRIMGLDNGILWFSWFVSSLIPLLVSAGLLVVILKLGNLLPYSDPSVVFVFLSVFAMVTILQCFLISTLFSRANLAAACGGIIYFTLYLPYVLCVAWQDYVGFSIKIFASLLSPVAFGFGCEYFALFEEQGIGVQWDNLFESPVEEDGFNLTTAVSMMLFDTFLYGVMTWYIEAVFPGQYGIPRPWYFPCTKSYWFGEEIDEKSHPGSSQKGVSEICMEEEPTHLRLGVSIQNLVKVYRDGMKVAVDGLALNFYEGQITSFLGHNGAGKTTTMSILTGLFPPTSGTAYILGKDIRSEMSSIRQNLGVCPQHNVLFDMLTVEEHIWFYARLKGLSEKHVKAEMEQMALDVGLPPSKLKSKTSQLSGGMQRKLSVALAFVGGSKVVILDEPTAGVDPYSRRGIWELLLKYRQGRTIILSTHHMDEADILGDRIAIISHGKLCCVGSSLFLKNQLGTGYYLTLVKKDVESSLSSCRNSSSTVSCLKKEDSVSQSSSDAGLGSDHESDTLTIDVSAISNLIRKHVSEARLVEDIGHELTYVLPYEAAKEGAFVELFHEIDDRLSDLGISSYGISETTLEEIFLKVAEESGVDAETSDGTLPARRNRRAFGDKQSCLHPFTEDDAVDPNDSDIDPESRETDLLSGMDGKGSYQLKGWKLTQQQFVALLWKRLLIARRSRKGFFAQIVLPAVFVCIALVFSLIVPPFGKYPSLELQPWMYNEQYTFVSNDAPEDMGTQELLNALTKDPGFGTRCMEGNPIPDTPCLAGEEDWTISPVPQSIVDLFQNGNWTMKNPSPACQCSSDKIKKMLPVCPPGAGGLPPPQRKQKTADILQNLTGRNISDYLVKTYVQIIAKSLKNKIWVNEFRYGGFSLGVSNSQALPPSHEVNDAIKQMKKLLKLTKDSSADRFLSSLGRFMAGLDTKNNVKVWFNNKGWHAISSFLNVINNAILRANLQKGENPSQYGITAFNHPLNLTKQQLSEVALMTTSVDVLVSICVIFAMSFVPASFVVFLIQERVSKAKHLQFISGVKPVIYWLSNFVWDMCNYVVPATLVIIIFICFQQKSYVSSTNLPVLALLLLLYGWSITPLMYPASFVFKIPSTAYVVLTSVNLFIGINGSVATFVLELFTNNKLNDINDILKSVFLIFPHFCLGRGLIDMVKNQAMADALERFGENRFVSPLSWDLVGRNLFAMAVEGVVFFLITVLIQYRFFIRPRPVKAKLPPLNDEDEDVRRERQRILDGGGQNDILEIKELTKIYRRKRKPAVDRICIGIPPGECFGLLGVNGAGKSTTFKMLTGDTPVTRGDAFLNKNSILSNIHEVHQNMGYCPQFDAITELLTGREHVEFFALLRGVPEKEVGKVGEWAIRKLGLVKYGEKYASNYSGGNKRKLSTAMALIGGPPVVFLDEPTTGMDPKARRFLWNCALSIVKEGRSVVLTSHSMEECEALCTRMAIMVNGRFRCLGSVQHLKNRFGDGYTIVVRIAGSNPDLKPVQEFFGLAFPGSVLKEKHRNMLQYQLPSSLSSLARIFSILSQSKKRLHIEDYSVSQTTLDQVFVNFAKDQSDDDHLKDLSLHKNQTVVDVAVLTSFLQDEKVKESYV", "assay": "Cholesterol efflux from [3H]cholesterol-labeled J774 macrophages ± cAMP (upregulates ABCA1)", "assay_type": "cell-based", "conditions": "for cholesterol efflux from cells induced for the ABCA1 response (in words): lipid-free peptide 30 μg/ml, 8 h, +cAMP compared to no cAMP; for % cholesterol efflux (8 hours): J774 macrophages", "from_the_text": "Suitable cholesterol efflux assays are described in, […] and Oda, M. N., Biochemistry, 41:2089-2096 (2002); Jia et al., Biochem. Biophys. Res. Common., 297:206-213 (2002). In some embodiments, a polypeptide known to mediate cholesterol efflux (e.g., helix 9/10 of Apo A-I) is used to screen for additional mediators of cholesterol efflux in a cell based assay. For example, cell lines in which cholesterol efflux can be enhanced using a cAMP analog that up-regulates ABCA1 protein expression (e.g., J774 macrophages) can conveniently be used to assess the ability of a polypeptide of the present invention to mediate cholesterol efflux. The cells are incubated with labeled cholesterol (e.g., [^3H]cholesterol) under conditions appropriate for cholesterol uptake by the cells. Thus, cAMP or cAMP analogs (e.g., CPT-cAMP) are incubated with the cells for a suitable time before the initiation of cellular cholesterol efflux, i.e., prior to contacting the cells with a test polypeptide. Measurement of labeled cholesterol appearing in the medium is used to determine the cholesterol efflux mediating activity of the test polypeptide. […] J774 cells plated on 24-well culture plates were labeled (48 h) with 1 μCi/ml of [^3H]cholesterol in 1% FBS. A cAMP analog was added (0.3 mM) to some wells (12-18 h) to up-regulate ABCA1 expression. Following cAMP treatment, cells were rinsed, and then exposed to peptide in serum-free medium. Panel A provides data showing the dependence of cholesterol efflux on concentration (lipid-free SEQ ID NO:2 peptide (squares) and lipid-free apolipoprotein(apo)A-I (circles)); cAMP-treated cells were used. The percentage of cellular [^3H]cholesterol that appeared in the medium at 8 h is shown, subtracting background efflux to serum-free medium alone. Values are means±SD; apoA-I, n=8; SEQ ID NO:2 peptide, n=3. Km values reflecting efficiency for cholesterol efflux stimulation were calculated (Prism 4 software) from concentration-dependence curves using the Michaelis-Menton equation and 4 h efflux data."}, "[2]": {"conditions": "Scaled = (Raw + 2.061)/4.484; Black and Mould 1991; cited from earlier work"}, "[3]": {"tested_on": "HDL subpopulations in human plasma", "assay": "preβ-1 HDL formation in human plasma (2D gel electrophoresis, apoA-I Western blot)", "assay_type": "biochemical", "conditions": "peptide 30 μg/ml (peptide:apoA-I mole ratio ~1:5), 5 minutes, 37° C.", "experimental": "Peptide of the invention may also be screened for the ability to induce preβ-1 HDL formation in human plasma. In one example of such an analysis, a peptide to be tested is added to human plasma. Plasma with and without peptide are incubated and then evaluated, e.g., by agarose gel electrophoresis in the first dimension followed by native gradient gel electrophoresis in the second dimension to evaluate the population of HDL particles present in the human plasma samples.\nPeptides corresponding to SEQ ID NO:2 were added to human plasma at a final concentration of 30 μg/ml (i.e. peptide:apoA-I mole ratio ˜1:5). Plasma with and without peptide were subsequently incubated for 5 minutes at 37° C. Following incubations, samples of plasma were subjected to agarose gel electrophoresis in the first dimension followed by native gradient gel electrophoresis in the second dimension. Proteins on resulting gels were transferred to nitrocellulose and analyzed by Western-blot analysis using an apoA-I antibody. The distribution of HDL subpopulations in plasma treated with vehicle alone (open bars), SEQ ID NO:2 peptide composed of all D-amino acids (intermediate shade), and SEQ ID NO:2 peptide composed of all L-amino acids (darkly shaded) is shown. […] Reductions of α-HDL subpopulations indicate that peptides specifically interact with distinct HDL species to generate preβ-1 apoA-I particles."}, "ABCA1 [4]": {"biological_target": "T1, ABCA1", "assay": "Cholesterol efflux activity of peptides after exposure to acrolein (MPO-derived oxidation product), J774 macrophages + cAMP", "assay_type": "cell-based", "conditions": "acrolein:peptide mole ratio 25:1, 18 h, 37° C.; efflux at 2 μg/ml", "experimental": "Peptides corresponding to SEQ ID NO:2 and SEQ ID NO:12 were exposed to acrolein (acrolein:peptide mole ratio=25:1) for 18 h at 37° C. Control peptides were similarly incubated in the absence of acrolein. Control and acrolein-treated peptides were then dialyzed and used for cholesterol efflux experiments. […] J774 macrophages treated with cAMP, which up-regulates ABCA1, were used in both panels. Cholesterol efflux assays were conducted using peptides at 2 μg/ml serum free-medium."}, "ABCA1 [5]": {"biological_target": "T1, ABCA1", "assay": "Cholesterol efflux from [3H]cholesterol-labeled J774 macrophages ± cAMP (upregulates ABCA1)", "assay_type": "cell-based", "conditions": "concentration dependence"}}, "note": "Square brackets hold non-standard residues; d marks the D form. Ends that are not written are not given here."}
{"compound": "ELREKLEALFELFREFLERF (synthetic amphipathic alpha-helix peptide ligand for ATP-binding cassette transporter A1 (ABCA1) having cholesterol efflux activity) [SEQ ID NO:32]", "values": [{"measurement": "cholesterol efflux from cells induced for the ABCA1 response (in words)", "setting": "ABCA1 [1]", "result": "relatively high-levels of cholesterol efflux"}]}
{"compound": "N[C@@H](Cc1c[nH]c2ccccc12)C(=O)O", "note": "[Tryptophan]", "values": [{"measurement": "Hydrophobicity (scaled computational log(P))", "setting": "[2]", "result": 0.878}]}
{"compound": "N[C@@H](Cc1ccccc1)C(=O)O", "note": "[Phenylalanine]", "values": [{"measurement": "Hydrophobicity (scaled computational log(P))", "setting": "[2]", "result": 1.00}]}
{"compound": "NC(=O)C[C@H](N)C(=O)O", "note": "[Asparagine]", "values": [{"measurement": "Hydrophobicity (scaled computational log(P))", "setting": "[2]", "result": 0.236}]}
{"compound": "ELREKLEAWFELFREFLERF ([dE][dL][dR][dE][dK][dL][dE][dA][dW][dF][dE][dL][dF][dR][dE][dF][dL][dE][dR][dF])", "values": [{"measurement": "change in HDL subpopulations in human plasma", "setting": "[3]", "result": "preferential increase in preβ-1 HDL"}]}
{"compound": "ELREKLEAFFELFREFLERF (synthetic amphipathic alpha-helix peptide ligand for ATP-binding cassette transporter A1 (ABCA1) having cholesterol efflux activity) [SEQ ID NO:33]", "values": [{"measurement": "cholesterol efflux from cells induced for the ABCA1 response (in words)", "setting": "ABCA1 [1]", "result": "relatively high-levels of cholesterol efflux"}]}
{"compound": "ELREKLEAWFELFREFLERFKS (synthetic amphipathic alpha-helix peptide ligand for ATP-binding cassette transporter A1 (ABCA1) having cholesterol efflux activity) [SEQ ID NO:31]", "values": [{"measurement": "stimulation of ABCA1 cholesterol efflux (in words)", "setting": "ABCA1 [1]; lipid-free peptide, J774 macrophages ± cAMP", "result": "stimulates ABCA1 cholesterol efflux, similar to 20-mer SEQ ID NO:2 peptide"}]}
{"compound": "NCC(=O)O", "note": "[Glycine]", "values": [{"measurement": "Hydrophobicity (scaled computational log(P))", "setting": "[2]", "result": 0.501}]}
{"compound": "ELRDRLEAWLDLLRELLERL [N1154-10]", "values": [{"measurement": "% cholesterol efflux (8 hours)", "setting": "ABCA1 [1]; + cAMP (ABCA1 upregulated)", "result": "8.25 ± 0.33", "unit": "%"}, {"measurement": "% cholesterol efflux (8 hours)", "setting": "ABCA1 [1]; no cAMP", "result": "2.66 ± 0.41", "unit": "%"}, {"measurement": "effect of acrolein on cholesterol efflux activity", "setting": "ABCA1 [4]", "result": "modest effects of acrolein"}, {"measurement": "% cholesterol efflux/4 hours", "setting": "ABCA1 [5]; peptide 0.1 μg/ml", "result": 0.58, "unit": "%"}, {"measurement": "% cholesterol efflux/4 hours", "setting": "ABCA1 [5]; peptide 0.3 μg/ml", "result": 1.00, "unit": "%"}, {"measurement": "% cholesterol efflux/4 hours", "setting": "ABCA1 [5]; peptide 1.0 μg/ml", "result": 2.12, "unit": "%"}, {"measurement": "% cholesterol efflux/4 hours", "setting": "ABCA1 [5]; peptide 3.0 μg/ml", "result": 5.25, "unit": "%"}, {"measurement": "% cholesterol efflux/4 hours", "setting": "ABCA1 [5]; peptide 10 μg/ml", "result": 4.15, "unit": "%"}, {"measurement": "% cholesterol efflux/4 hours", "setting": "ABCA1 [5]; peptide 30 μg/ml", "result": 3.70, "unit": "%"}]}
{"compound": "N[C@@H](Cc1c[nH]cn1)C(=O)O", "note": "[Histidine]", "values": [{"measurement": "Hydrophobicity (scaled computational log(P))", "setting": "[2]", "result": 0.165}]}
{"compound": "N[C@@H](CCC(=O)O)C(=O)O", "note": "[Glutamate]", "values": [{"measurement": "Hydrophobicity (scaled computational log(P))", "setting": "[2]", "result": 0.043}]}
{"compound": "apoA-I: full-length apolipoprotein A-I, polypeptide comprising 243 amino acids, used lipid-free as comparator [reference compound]", "values": [{"measurement": "Km", "setting": "ABCA1 [1]; lipid-free, cAMP-treated cells, 4 h efflux data, read-out: Km for cholesterol efflux stimulation, molar basis", "result": "0.12 ± 0.02", "unit": "µM"}, {"measurement": "Km for cholesterol efflux stimulation, mass basis", "setting": "ABCA1 [1]; lipid-free, cAMP-treated cells, Michaelis-Menton fit of 4 h efflux data", "result": "3.4 ± 0.6", "unit": "µg/mL"}]}
{"compound": "C[C@H](N)C(=O)O", "note": "[Alanine]", "values": [{"measurement": "Hydrophobicity (scaled computational log(P))", "setting": "[2]", "result": 0.616}]}
{"compound": "ELREKLEAWFELFAEFFARF (synthetic amphipathic alpha-helix peptide N356-6 ligand for ATP-binding cassette transporter A1 (ABCA1) having cholesterol efflux activity)", "values": [{"measurement": "concentration giving max. efflux", "setting": "ABCA1 [1]; concentration dependence, cAMP treated cells", "result": 3, "unit": "µg/mL"}]}
{"compound": "ELREKLEAWREAFEEFFARFKS [N257-11]", "values": [{"measurement": "% cholesterol efflux (8 hours)", "setting": "ABCA1 [1]; + cAMP (ABCA1 upregulated)", "result": "6.99 ± 1.4", "unit": "%"}, {"measurement": "% cholesterol efflux (8 hours)", "setting": "ABCA1 [1]; no cAMP", "result": "0.91 ± 0.1", "unit": "%"}]}
{"compound": "N=C(N)NCCC[C@H](N)C(=O)O", "note": "[Arginine]", "values": [{"measurement": "Hydrophobicity (scaled computational log(P))", "setting": "[2]", "result": 0.000}]}
{"compound": "CC(C)[C@H](N)C(=O)O", "note": "[Valine]", "values": [{"measurement": "Hydrophobicity (scaled computational log(P))", "setting": "[2]", "result": 0.825}]}
{"compound": "ELREKLEAWFELFREFLERF [N965-8]", "values": [{"measurement": "% cholesterol efflux (8 hours)", "setting": "ABCA1 [1]; + cAMP (ABCA1 upregulated)", "result": "5.26 ± 0.95", "unit": "%"}, {"measurement": "% cholesterol efflux (8 hours)", "setting": "ABCA1 [1]; no cAMP", "result": "2.29 ± 0.16", "unit": "%"}, {"measurement": "effect of acrolein on cholesterol efflux activity", "setting": "ABCA1 [4]", "result": "Acrolein greatly decreased the activity"}, {"measurement": "% cholesterol efflux/4 hours", "setting": "ABCA1 [5]; peptide 0.1 μg/ml", "result": 0.15, "unit": "%"}, {"measurement": "% cholesterol efflux/4 hours", "setting": "ABCA1 [5]; peptide 0.3 μg/ml", "result": 0.52, "unit": "%"}, {"measurement": "% cholesterol efflux/4 hours", "setting": "ABCA1 [5]; peptide 1.0 μg/ml", "result": 1.72, "unit": "%"}, {"measurement": "% cholesterol efflux/4 hours", "setting": "ABCA1 [5]; peptide 3.0 μg/ml", "result": 4.60, "unit": "%"}, {"measurement": "% cholesterol efflux/4 hours", "setting": "ABCA1 [5]; peptide 10 μg/ml", "result": 3.62, "unit": "%"}, {"measurement": "% cholesterol efflux/4 hours", "setting": "ABCA1 [5]; peptide 30 μg/ml", "result": 3.66, "unit": "%"}]}
{"compound": "O=C(O)[C@@H]1CCCN1", "note": "[Proline]", "values": [{"measurement": "Hydrophobicity (scaled computational log(P))", "setting": "[2]", "result": 0.711}]}
{"compound": "NCCCC[C@H](N)C(=O)O", "note": "[Lysine]", "values": [{"measurement": "Hydrophobicity (scaled computational log(P))", "setting": "[2]", "result": 0.283}]}
{"compound": "C[C@@H](O)[C@H](N)C(=O)O", "note": "[Threonine]", "values": [{"measurement": "Hydrophobicity (scaled computational log(P))", "setting": "[2]", "result": 0.450}]}
{"compound": "CC[C@H](C)[C@H](N)C(=O)O", "note": "[Isoleucine]", "values": [{"measurement": "Hydrophobicity (scaled computational log(P))", "setting": "[2]", "result": 0.943}]}
{"compound": "CSCC[C@H](N)C(=O)O", "note": "[Methionine]", "values": [{"measurement": "Hydrophobicity (scaled computational log(P))", "setting": "[2]", "result": 0.738}]}
{"compound": "N[C@@H](Cc1ccc(O)cc1)C(=O)O", "note": "[Tyrosine]", "values": [{"measurement": "Hydrophobicity (scaled computational log(P))", "setting": "[2]", "result": 0.880}]}
